In patent publication US7078389B2, “Chemically modified oligonucleotide for site-directed mutagenesis” (priority 1993, dated 2006):
Values joined by “and” are separate entries in the source; they are usually repeats but may differ in a detail not shown here. Equal values may be shown once.

Columns and labels:
[1] = test system: supF gene within the pSP189 SV40 vector; assay: SV40 mutagenesis: vector DNA passaged in COS-7 cells; type: cell-based, monkey
Procedure: FIG. 3 is a schematic representation of the strategy for targeted mutagenesis of SV40 DNA. The 10 base triplex-forming oligonucleotide, psoralen-AG10 (4′hydroxymethyl-4,5′,8-trimethylpsoralen-5′[…]3′) (SEQ ID NO:1), is shown directly above its targeted sequence in the supF gene (base pairs 167–176), contained within the SV40 vector, pSP189. Psoralen-AG10 is incubated with the SV40 vector DNA to allow site-specific triplex formation. Photoactivation of the psoralen by irradiation with long wave ultraviolet light (320–400 nm) is designed to generate an adduct at the targeted base pair (167), as indicated by the arrow. The oligo-plasmid complex is then transfected into monkey COS-7 cells and allowed to replicate for 48 hours. Following purification of the vector DNA by the Hirt lysate procedure (Hirt et al., J. Mol. Biol. 26:365–369 (1967)), the DNA is used to transform E. coli SY204 lacZ125 (Am).
SV40 mutagenesis. The SV40 vector DNA (pSP189) at 80 nM was incubated with psoralen-AG10 or psoralen-GA10 (ranging from 2 to 1000-fold molar excess) and irradiated as described above. The oligonucleotide-plasmid complex was then transfected into monkey COS-7 cells (ATCC #1651-CRL) using cationic liposomes (DOTAP, Boehringer Manheim, Indianapolis, Ind.) at a final concentration of 5 μg/ml in the culture dish. The DNA/oligo/liposome mixture was added dropwise to the cell culture dish with swirling. The following day, the media containing the liposome mixture was replaced by fresh media. Following 48 hours to allow repair and replication, SV40 vector DNA was harvested from the COS cells by the Hirt lysate procedure. Genetic analysis of the supF genes in the SV40 vector was carried out by transformation of E. coli SY204 [lacZ125(Am)] to ampicillin resistance by electroporation using 12–150 ng of Dpn I digested Hirt lysate DNA and a Bio-Rad Gene Pulser apparatus equipped with a Pulse Controller (Bio-Rad, Richmond, Calif.). Mutants were identified by growth in the presence of 65 μg/ml IPTG and 80 μg/ml X-Gal, as described by (Glazer et al., Mol. Cell Biol. 7:218–224 (1987)). These transformants were counted and the mutants (white colonies) were streaked for single colonies.
In this vector system, the SV40 DNA, after appropriate treatment, is introduced into monkey COS cells where repair and replication can occur, producing mutations indicative of mammalian processing of DNA damage. The small, circular vector DNA is recovered from the cells by biochemical separation from the chromosomal DNA (Hirt lysate, Hirt et al., J. Mol. Biol. 26:365–369 (1967)), and it is used to transform E. coli carrying the lacZ (amber) mutation to allow analysis of supF gene function by scoring colonies for β-galactosidase activity (produced via suppression of the amber mutation in lacZ) in the presence of the chromogenic substrate, X-gal. Vectors with wild type supF genes yield blue colonies; those with mutations in supF produce white ones. In order to eliminate misleading data that might arise from viral DNA that was not replicated or repaired in the mammalian cells, the viral DNA is digested before bacterial transformation with the enzyme Dpn I which will restrict DNA that has not been methylated by the mammalian pattern at its recognition site.
The design of the initial experiments to target mutations to SV40 DNA is illustrated in FIG. 3. A 10 base pair region of the supF gene (bp 167–176) was identified as a site amenable to triplex formation because of the homopurine/homopyrimidine run there. Since this run was G-rich, the purine motif for triplex formation was selected (Beal and Dervan, Science 251:1360–1363 (1991)), and an oligonucleotide, 5′[…]3′ (SEQ ID NO:2) (AG10) was synthesized based on this motif. A psoralen derivative, 4′-hydroxymethyl-4,5′,8-trimethylpsoralen, was attached to the oligonucleotide by a phosphodiester linkage at the 5′ adenine via a two carbon linker arm, with the goal of directing mutations to base pair 167.

250 bp supF PCR fragment = assay: Hinf I restriction enzyme protection assay, PCR amplified supF target; type: binding, E. coli; settings: 100-fold molar excess of oligonucleotide
Excerpt: FIG. 4 is a schematic representation showing the basis of a restriction enzyme protection assay to detect site-specific triplex formation within the supF gene. The formation of triplex DNA by psoralen-AG10 at its targeted site (bp 167–176 of the supF gene) overlaps with the Hinf I restriction site at bp 164–168 (indicated in the diagram by the box around the appropriate base pairs). Digestion of the unprotected 250 bp supF PCR fragment with Hinf I is expected to yield three fragments of sizes 150, 65, and 35 bp. In contrast, with the Hinf I site at bp 164–168 blocked by triplex formation at bp 167–176, fragments of sizes 150 and 100 bp are predicted.
The 250 bp supF target (70 nM) was incubated with a 100-fold molar excess of psoralen-AG10 as described for the binding assay. Irradiation of samples was performed at a dose of 1.8 J/cm^2. A radiometer was used to measure the lamp output (typical UVA irradiance of 5–7 mW/cm^2 at 320–400 nm). Following the binding and irradiation steps, samples were digested for 2 hours at 37° C. with Hinf I. Loading buffer was added and samples were heated 10 minutes at 55° C., and run for 1 hour on a 4.5% Nusieve gel in TAE buffer at 80 v (10 v/cm).
Site-specific formation of triplex DNA. […] This is diagrammed in FIG. 4. […] Analysis by agarose gel electrophoresis of Hinf I digestions of the 250 bp supF gene PCR fragment under various conditions was done. The supF fragment was incubated with or without psoralen-AG10 at a 100-fold molar excess, treated by 1.8 J/cm^2 of UVA irradiation, and then subjected to Hinf I digestion. Digestion of the unprotected 250 bp supF PCR fragment with Hinf I yielded three fragments of sizes 150, 65, and 35 in contrast with the uncut fragment of 250 bp. […] In the absence of psoralen-AG10, UVA light had no effect on Hinf I digestion.

duplex supF DNA = assay: UVA-induced covalent bond formation to duplex supF DNA; type: binding, E. coli; settings: following UVA irradiation
[2] = ratio of oligo to vector 2:1, UVA 1.8 J/cm^2
[3] = ratio of oligo to vector 5:1, UVA 1.8 J/cm^2
[4] = ratio of oligo to vector 10:1, UVA 1.8 J/cm^2
[5] = ratio of oligo to vector 1000:1, no UVA
[6] = supF fragment 70 nM, UVA 1.8 J/cm^2

Substance | Fold higher targeted mutagenesis in SV40 than in bacteriophage lambda grown in E. coli ([1]; 6% to 7% versus 0.23%) | % mutants (supF gene) [1, 2] | % mutants (supF gene) [1, 3] | % mutants (supF gene) [1, 4] | % mutants (supF gene) ([1]; ratio of oligo to vector 1000:1, UVA 1.8 J/cm^2) | % mutants (supF gene) [1, 5] | Mutants per total colonies [1, 5] | Protection from Hinf I digestion (250 bp supF PCR fragment; no UVA) | Protection from Hinf I digestion (250 bp supF PCR fragment; [6]) | Covalent bond to labeled duplex supF DNA (duplex supF DNA) | supF mutagenesis relative to background ([1]; lower ratios of oligo to vector (below 1000:1), plus UVA) | % mutants (supF gene) ([1]; ratio of oligo to vector 1000:1, UVA 1.8 J/cm^2, listed as psoralen-GA10)
4′-hydroxymethyl-4,5′,8-trimethylpsoralen-^5′AGGAAGGGGG^3′ (DNA NAGGAAGGGGG; 4'-hydroxymethyl-4,5',8-trimethylpsoralen conjugated at 5' end, further chemistry not given here) [pso-AG10] | 30 fold | 2.5% | 4.3% | 6.4% | 7.3% | ≦0.06% | 0/1700 | not sufficient to prevent Hinf I digestion | protection of the Hinf I site at bp 164–168 but not the one at bp 129–133 | formed a covalent bond to labeled duplex supF DNA following UVA irradiation | – | –
pso-^5′GGGGGAAGGA^3′ (DNA NGGGGGAAGGA; psoralen conjugated at 5' end, further chemistry not given here) [pso-GA10, reference compound] | – | 0.07% | 0.13% | 0.06% | – | ≦0.07% | 0/1500 | – | no protection from Hinf I cutting | did not | no significant mutagenesis above the background frequency | 0.5% and 0.63%
